In patent US20020037931A1, “Substituted nitrated catechols, their use in the treatment of some central and peripheral nervous system disorders and pharmaceutical compositions containing them” (priority 2000, published 2002):

Experiments:
COMT [1] = assay: COMT activity (methylation of adrenaline to metanephrine) in rat brain homogenates; format: biochemical; details: rat brain homogenate; test compound 100 nM; means±SEM, n=4-8
COMT [2] = target: T1, COMT (Homo sapiens, UniProt P21964); assay: COMT activity in intact SK-N-SH cell monolayers; format: cell-based; details: SK-N-SH cells; test compound 100 nM; means±SEM, n=4-8
T1 construct: COMT activity was evaluated in cell monolayers by the ability to methylate adrenaline; host or cells: SK-N-SH cells
T1 sequence (P21964 1-271): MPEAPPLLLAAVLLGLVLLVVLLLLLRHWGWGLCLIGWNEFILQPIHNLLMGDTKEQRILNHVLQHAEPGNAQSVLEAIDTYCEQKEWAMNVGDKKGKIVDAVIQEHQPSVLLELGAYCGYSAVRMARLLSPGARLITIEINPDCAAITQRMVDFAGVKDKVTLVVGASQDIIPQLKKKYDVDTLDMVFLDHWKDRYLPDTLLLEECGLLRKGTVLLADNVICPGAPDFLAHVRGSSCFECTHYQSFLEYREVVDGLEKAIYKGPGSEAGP

COMT [3] = assay: COMT activity (methylation of adrenaline to metanephrine) in rat liver homogenates; format: biochemical; details: rat liver homogenate; test compound 3 μM; means±SEM, n=4-8

SMILES | COMT activity, Brain (% of control) (COMT [1]) | COMT activity, SK-N-SH (% of control) (COMT [2]) | COMT activity, Liver (% of control) (COMT [3])
O=C1c2c(cc(O)c(O)c2[N+](=O)[O-])CC1CN1CCCCC1 (stereo not drawn) [Compound 30, 5,6-Dihydroxy-7-nitro-2-piperidin-1-ylmethyl-indan-1-one] | 8 ± 0 % of control | 17 ± 1 % of control | 1.4 ± 0.1 % of control
CCN(CC)C(=O)C1CCCN(CCC(=O)c2ccc(O)c(O)c2[N+](=O)[O-])C1 (stereo not drawn) [Compound 31, 1-[3-(3,4-Dihydroxy-2-nitro-phenyl)-3-oxo-propyl]-piperidine-3-carboxylic acid diethylamide] | 8 ± 0 % of control | 13 ± 2 % of control | 1.7 ± 0.6 % of control
CC1CCCN(CCC(=O)c2ccc(O)c(O)c2[N+](=O)[O-])C1 (stereo not drawn) [Compound 32, 1-(3,4-Dihydroxy-2-nitro-phenyl)-3-(3-methyl-piperidin-1-yl)-propan-1-one] | 10 ± 0 % of control | 11 ± 2 % of control | 2.3 ± 0.2 % of control
CC1CCN(CCC(=O)c2ccc(O)c(O)c2[N+](=O)[O-])CC1 [Compound 33, 1-(3,4-Dihydroxy-2-nitro-phenyl)-3-(4-methyl-piperidin-1-yl)-propan-1-one] | 6 ± 0 % of control | 14 ± 0 % of control | 2.2 ± 0.3 % of control
O=C(CCN1CCCC2CCCCC21)c1ccc(O)c(O)c1[N+](=O)[O-] (stereo not drawn) [Compound 34, 1-(3,4-Dihydroxy-2-nitro-phenyl)-3-(octahydro-quinolin-1-yl)-propan-1-one] | 5 ± 0 % of control | 11 ± 2 % of control | 1.6 ± 0.2 % of control
CC1CC(C)CN(CCC(=O)c2ccc(O)c(O)c2[N+](=O)[O-])C1 (stereo not drawn) [Compound 35, 1-(3,4-Dihydroxy-2-nitro-phenyl)-3-(3,5-dimethyl-piperidin-1-yl)-propan-1-one] | 9 ± 0 % of control | 13 ± 1 % of control | 23. ± 0.3 % of control
O=C(CCN1CCC(Cc2ccccc2)CC1)c1ccc(O)c(O)c1[N+](=O)[O-] [Compound 36, 3-(4-benzyl-piperidin-1-yl)-1-(3,4-Dihydroxy-2-nitro-phenyl)-propan-1-one] | 6 ± 0 % of control | 9 ± 2 % of control | 2.2 ± 0.4 % of control
COc1ccc(N2CCN(CCC(=O)c3ccc(O)c(O)c3[N+](=O)[O-])CC2)cc1 [Compound 37, 1-(3,4-Dihydroxy-2-nitro-phenyl)-3-[4-(4-methoxy-phenyl)-piperazin-1-yl]-propan-1-one] | 6 ± 0 % of control | 6 ± 2 % of control | 1.7 ± 0.3 % of control
O=C(CCN1CCN(c2cccc(C(F)(F)F)c2)CC1)c1ccc(O)c(O)c1[N+](=O)[O-] [Compound 38, 1-(3,4-Dihydroxy-2-nitro-phenyl)-3-[4-(3-trifluoromethyl-phenyl)-piperazin-1-yl]-propan-1-one] | 7 ± 0 % of control | 6 ± 1 % of control | 11.2 ± 1.5 % of control
CCCN1CCN(CCC(=O)c2ccc(O)c(O)c2[N+](=O)[O-])CC1 [Compound 39, 1-(3,4-Dihydroxy-2-nitro-phenyl)-3-(4-propyl-piperazin-1-yl)-propan-1-one] | 8 ± 0 % of control | 11 ± 0 % of control | 0.8 ± 0.2 % of control
CC(=O)Oc1ccc(C(=O)C=Cc2ccccc2)c([N+](=O)[O-])c1OC(C)=O [Compound 40, Acetic acid, 6-acetoxy-2-nitro-3-(3-phenyl-acryloyl)-phenyl ester] | 10 ± 0 % of control | 8 ± 1 % of control | 1.6 ± 0.4 % of control
